Assay [1] has as its system KM12 cells (harboring endogenous TPM3-TRKA fusion gene). Nature of the assay: KM12 cell proliferation assay (CellTiter-Glo, 72 hours). The format is cell-based. The settings on record: Homo sapiens, KM12 colorectal cell line, 72 hours incubation. As to the method: (§1) Colorectal cell lines KM 12 (harboring endogenous TPM3-TRKA fusion gene) cells were cultured in DMEM medium, supplemented with 10% fetal bovine serum and 100 U/mL of penicillin/streptomycin. 5000 cells were seeded in 384 well white plate for 24 hours before compounds treatment. Cell proliferation was measured using CellTiter-Glo luciferase-based ATP detection assay (Promega) following the manufactures's protocol after 72 hours incubation. IC50 determinations were performed using GraphPad Prism software (GraphPad, Inc., San Diego, Calif.).
as §1, with “Alternatively: Colorectal” for “Colorectal”, “line KM12” for “lines KM 12”, “DMEM medium, supplemented with 10% fetal bovine serum and 100 U/mL of penicillin/streptomycin. Essential thrombocythemia cell line SET-2 cells (harboring endogenous JAK2 V618F point mutation) were cultured in RPMI” for “DMEM”

For another assay, the target named is T1, BTK kinase (Homo sapiens, UniProt Q06187).
T1 construct: purchased Eurofins (KinaseProfiler) / Reaction Biology Corporation
Description: BTK biochemical kinase assay (radiometric; Eurofins KinaseProfiler / Reaction Biology). Conditions: ATP 10 μM. On the procedure: The Compounds were tested against BTK kinase using the Eurofins standard KinaseProfiler™ assays and following the relevant standard operating procedures. Protein kinases were assayed in a radiometric format. Full details of the assay for each kinase are available on the Eurofins website, or in the accompanying protocol document. All compounds were prepared to a working stock of 50× final assay concentration in 100% DMSO. Where appropriate, more concentrated stocks were diluted manually to 50× using 100% DMSO. Compounds supplied as powders were reconstituted to a 10 mM stock in 100% DMSO before further dilution to 50×. The required volume of the 50× stock of test compound was added to the assay well, before a reaction mix containing the enzyme and substrate was added. The reaction was initiated by the addition of ATP at the selected 10 μM concentration. There was no pre-incubation of the compound with the enzyme/substrate mix prior to ATP addition. For IC50 determinations, data are analysed using XLFit version 5.3 (ID Business Solutions). Sigmoidal dose-response (variable slope) curves are fit based on the mean result for each test concentration using non-linear regression analysis. Where the top and/or bottom of the curve fall >10% out with 100 and 0, respectively, either or both of these limits may be constrained at 100 and 0, provided that the QC criterion on R^2 is met.
The BTK biochemical kinase assay was also performed at Reaction Biology Corporation (www.reactionbiology.com, Malvern, Pa.) following the procedures described in the reference (Anastassiadis T, et al Nat Biotechnol. 2011, 29, 1039). Specific kinase/substrate pairs along with required cofactors were prepared in reaction buffer; 20 mM Hepes pH 7.5, 10 mM MgCl2, 1 mM EGTA, 0.02% Brij35, 0.02 mg/ml BSA, 0.1 mM Na3VO4, 2 mM DTT, 1% DMSO (for specific details of individual kinase reaction components see Supplementary Table 2). Compounds were delivered into the reaction, followed ˜20 minutes later by addition of a mixture of ATP (Sigma, St. Louis Mo.) and ^33P ATP (Perkin Elmer, Waltham Mass.) to a final concentration of 10 μM. Reactions were carried out at room temperature for 120 min, followed by spotting of the reactions onto P81 ion exchange filter paper (Whatman Inc., Piscataway, N.J.). Unbound phosphate was removed by extensive washing of filters in 0.75% phosphoric acid. […] IC50 values and curve fits were obtained using Prism (GraphPad Software).

In assay [2] the test system is SET-2 cells (harboring endogenous JAK2 V618F point mutation). Nature of the assay: SET-2 cell proliferation assay (CellTiter-Glo, 72 hours). The format is cell-based. Conditions: Homo sapiens, SET-2 essential thrombocythemia cell line, 72 hours incubation, read-out: Cell Proliferation JAK2 SET2 Cell IC50. As to the method: as §1, with “Alternatively: Colorectal” for “Colorectal”, “line KM12” for “lines KM 12”, “DMEM medium, supplemented with 10% fetal bovine serum and 100 U/mL of penicillin/streptomycin. Essential thrombocythemia cell line SET-2 cells (harboring endogenous JAK2 V618F point mutation) were cultured in RPMI” for “DMEM”
For orientation: ATP-based viability assays read luminescence as a measure of living cells.

T1 sequence (Q06187 whole entry): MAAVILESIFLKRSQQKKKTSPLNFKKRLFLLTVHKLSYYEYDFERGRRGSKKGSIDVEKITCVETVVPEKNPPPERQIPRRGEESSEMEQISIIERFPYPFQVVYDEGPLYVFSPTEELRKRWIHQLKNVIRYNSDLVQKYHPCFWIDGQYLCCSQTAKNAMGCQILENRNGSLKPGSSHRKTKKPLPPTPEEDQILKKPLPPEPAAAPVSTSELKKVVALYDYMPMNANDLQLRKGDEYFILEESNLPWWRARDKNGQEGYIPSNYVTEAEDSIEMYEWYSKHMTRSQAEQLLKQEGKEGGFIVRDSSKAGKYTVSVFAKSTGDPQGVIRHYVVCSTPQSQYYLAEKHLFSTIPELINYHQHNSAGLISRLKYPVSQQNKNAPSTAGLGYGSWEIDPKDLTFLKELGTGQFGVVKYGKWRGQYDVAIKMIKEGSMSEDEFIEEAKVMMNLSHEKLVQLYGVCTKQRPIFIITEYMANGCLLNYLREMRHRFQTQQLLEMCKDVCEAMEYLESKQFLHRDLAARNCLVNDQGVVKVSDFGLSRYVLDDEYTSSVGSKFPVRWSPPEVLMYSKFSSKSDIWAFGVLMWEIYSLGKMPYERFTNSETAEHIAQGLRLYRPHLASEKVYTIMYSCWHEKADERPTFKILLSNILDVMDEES

For `C[C@H]1CNC(=O)c2cnn3ccc(nc23)N[C@H](C)c2cc(F)cc(F)c2O1` [Compound 1, (7S,13R)-9,11-difluoro-7,13-dimethyl-6,7,13,14-tetrahydro-1,15-ethenopyrazolo[4,3-f][1,4,8,10]benzoxatriazacyclotridecin-4(5H)-one], the IC50 in assay [1] was 0.2 nM; on BTK kinase it was 2.47 nM; in assay [2], 120 nM.

For the compound `C[C@H]1CNC(=O)c2cnn3ccc(nc23)N[C@H](C)c2c(ccc(F)c2Cl)O1` [Compound 2, (7S,13R)-12-chloro-11-fluoro-7,13-dimethyl-6,7,13,14-tetrahydro-1,15-ethenopyrazolo[4,3-f][1,4,8,10]benzoxatriazacyclotridecin-4(5H)-one], the IC50 is 5.1 nM in assay [1], 2.53 nM at BTK kinase and 3000 nM in assay [2].

Consider `C[C@H]1Nc2ccn3ncc(c3n2)C(=O)NC[C@@H](CO)Oc2c(F)cc(F)cc21` [Compound 3, (7S,13R)-9,11-difluoro-7-(hydroxymethyl)-13-methyl-6,7,13,14-tetrahydro-1,15-ethenopyrazolo[4,3-f][1,4,8,10]benzoxatriazacyclotridecin-4(5H)-one], for which the IC50 in assay [1] worked out at 21.5 nM; in assay [2] it was 15.5 nM.

On to `C[C@H]1Nc2ccn3ncc(c3n2)C(=O)NC[C@@H](CO)Oc2ccc(F)c(Cl)c21` [Compound 4, (7S,13R)-12-chloro-11-fluoro-7-(hydroxymethyl)-13-methyl-6,7,13,14-tetrahydro-1,15-ethenopyrazolo[4,3-f][1,4,8,10]benzoxatriazacyclotridecin-4(5H)-one], for which the IC50 in assay [1] amounted to 45.4 nM; in assay [2], 3000 nM.

Regarding `C[C@H]1Nc2ccn3ncc(c3n2)C(=O)NCCOc2c(Br)cc(F)cc21` [Compound 5, (13R)-9-bromo-11-fluoro-13-methyl-6,7,13,14-tetrahydro-1,15-ethenopyrazolo[4,3-f][1,4,8,10]benzoxatriazacyclotridecin-4(5H)-one], the IC50 in assay [1] came out at 5 nM; on BTK kinase it was 60 nM; in assay [2], 200 nM.

On to `C[C@H]1Nc2ccn3ncc(c3n2)C(=O)NCCOc2c(Cl)cc(F)cc21` [Compound 6, (13R)-9-chloro-11-fluoro-13-methyl-6,7,13,14-tetrahydro-1,15-ethenopyrazolo[4,3-f][1,4,8,10]benzoxatriazacyclotridecin-4(5H)-one], for which the values for the IC50 (in assay [1]; on BTK kinase; in assay [2]) were 4.2 nM, 64.4 nM and 78.2 nM, respectively.

For `C[C@H]1CNC(=O)c2cnn3ccc(nc23)N[C@H](C)c2cc(F)cc(Br)c2O1` [Compound 7, (7S,13R)-9-bromo-11-fluoro-7,13-dimethyl-6,7,13,14-tetrahydro-1,15-ethenopyrazolo[4,3-f][1,4,8,10]benzoxatriazacyclotridecin-4(5H)-one], the IC50 worked out at 0.2 nM in assay [1] and 6.7 nM in assay [2].

On to `C[C@H]1CNC(=O)c2cnn3ccc(nc23)N[C@H](C)c2cc(F)cc(Cl)c2O1` [Compound 8, (7S,13R)-9-chloro-11-fluoro-7,13-dimethyl-6,7,13,14-tetrahydro-1,15-ethenopyrazolo[4,3-f][1,4,8,10]benzoxatriazacyclotridecin-4(5H)-one], for which the IC50 is 0.2 nM in assay [1], 3.97 nM against BTK kinase and 83.7 nM in assay [2].

With `CC(C)N1Cc2cc(F)cc(F)c2OCCNC(=O)c2cnn3ccc1nc23` [Compound 9, 9,11-difluoro-14-(propan-2-yl)-6,7,13,14-tetrahydro-1,15-ethenopyrazolo[4,3-f][1,4,8,10]benzoxatriazacyclotridecin-4(5H)-one], the IC50 in assay [1] amounted to 5.2 nM; against BTK kinase it was 22.2 nM; in assay [2], 132 nM.

As to `CC(C)N1Cc2cc(F)cc(Cl)c2OCCNC(=O)c2cnn3ccc1nc23` [Compound 10, 9-chloro-11-fluoro-14-(propan-2-yl)-6,7,13,14-tetrahydro-1,15-ethenopyrazolo[4,3-f][1,4,8,10]benzoxatriazacyclotridecin-4(5H)-one], the IC50 in assay [1] turned out to be 0.1 nM; at BTK kinase it was 179 nM; in assay [2] it was 1480 nM.

`C[C@H]1CNC(=O)c2cnn3ccc(nc23)N[C@H](C)c2c(ccc(F)c2F)O1` [Compound 11, (7S,13R)-11,12-difluoro-7,13-dimethyl-6,7,13,14-tetrahydro-1,15-ethenopyrazolo[4,3-f][1,4,8,10]benzoxatriazacyclotridecin-4(5H)-one]: the IC50 amounted to 0.2 nM in assay [1], 14.2 nM against BTK kinase and 3.9 nM in assay [2].

For `CC(C)N1Cc2cc(F)cc(F)c2OCCCNC(=O)c2cnn3ccc1nc23` [Compound 12, 10,12-difluoro-15-(propan-2-yl)-5,6,7,8,14,15-hexahydro-4H-1,16-ethenopyrazolo[4,3-g][1,5,9,11]benzoxatriazacyclotetradecin-4-one], the results for the IC50 (in assay [1]; on BTK kinase; in assay [2]) were 0.2 nM, 9.67 nM and 5000 nM, respectively.

On to `CC(C)N1Cc2c(ccc(F)c2Cl)OCCNC(=O)c2cnn3ccc1nc23` [Compound 13, 12-chloro-11-fluoro-14-(propan-2-yl)-6,7,13,14-tetrahydro-1,15-ethenopyrazolo[4,3-f][1,4,8,10]benzoxatriazacyclotridecin-4(5H)-one], for which the IC50 in assay [1] was found to be 300 nM; against BTK kinase, 5.54 nM; in assay [2] it was 10000 nM.

Turning to `CC(C)N1Cc2c(ccc(F)c2Cl)O[C@@H](C)CNC(=O)c2cnn3ccc1nc23` [Compound 14, (7S)-12-chloro-11-fluoro-7-methyl-14-(propan-2-yl)-6,7,13,14-tetrahydro-1,15-ethenopyrazolo[4,3-f][1,4,8,10]benzoxatriazacyclotridecin-4(5H)-one], the values for the IC50 (in assay [1]; on BTK kinase; in assay [2]) were 0.2 nM, 0.536 nM and 1500 nM, respectively.

Turning to `CC(C)Oc1cc(F)cc2c1OCCNC(=O)c1cnn3ccc(nc13)N[C@@H]2C` [Compound 15, (13R)-11-fluoro-13-methyl-9-[(propan-2-yl)oxy]-6,7,13,14-tetrahydro-1,15-ethenopyrazolo[4,3-f][1,4,8,10]benzoxatriazacyclotridecin-4(5H)-one], the IC50 in assay [1] came out at 2 nM; on BTK kinase it was 154 nM; in assay [2], 500 nM.

For the compound `COc1cc(F)cc2c1OCCNC(=O)c1cnn3ccc(nc13)N[C@@H]2C` [Compound 16, (13R)-11-fluoro-9-methoxy-13-methyl-6,7,13,14-tetrahydro-1,15-ethenopyrazolo[4,3-f][1,4,8,10]benzoxatriazacyclotridecin-4(5H)-one], the IC50 was found to be 13.9 nM in assay [1], 450 nM at BTK kinase and 300 nM in assay [2].

`C[C@H]1Nc2ccn3ncc(c3n2)C(=O)NCCOc2c(O)cc(F)cc21` [Compound 17, (13R)-11-fluoro-9-hydroxy-13-methyl-6,7,13,14-tetrahydro-1,15-ethenopyrazolo[4,3-f][1,4,8,10]benzoxatriazacyclotridecin-4(5H)-one]: the IC50 in assay [1] came to 15.4 nM; against BTK kinase, 48 nM; in assay [2], 600 nM.

For `Cc1nn(C)cc1-c1cc(F)cc2c1O[C@@H](C)CNC(=O)c1cnn3ccc(nc13)N[C@@H]2C` [Compound 20, (7S,13R)-9-(1,3-dimethyl-1H-pyrazol-4-yl)-11-fluoro-7,13-dimethyl-6,7,13,14-tetrahydro-1,15-ethenopyrazolo[4,3-f][1,4,8,10]benzoxatriazacyclotridecin-4(5H)-one], the IC50 in assay [1] is 6.4 nM; at BTK kinase, 238 nM.

Values taken from patent publication US10689400B2, “Macrocycle kinase inhibitors” (Turning Point Therapeutics, Inc., priority 2016, dated 2020).
